The text below walks through data of patent publication US9796711B2, “Substituted pyrazolo[3,4-b]pyridin-6-carboxylic acids and method of use” (AbbVie S.àr.l., priority 2015, dated 2017).

Experiment [1] addresses T1, ΔF508-CFTR (Homo sapiens, UniProt P13569, DEL508-508).
T1 construct: host or cells: CFBE41o-, doxycycline-inducible
The experiment can be described thus: CFTR cell surface levels using HRP-tagged ΔF508-CFTR expressing CFBE cells, in the presence of a co-corrector. Type of experiment: cell-based. The gist of the method:
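Cells were seeded with 0.5 μg/mL doxycycline and held 68 h at 37 °C. Test compounds plus 3 μM co-corrector (final 0.1% DMSO) were then added for 20 h at 33 °C. Washed cells received HRP substrate, and luminescence was normalized between DMSO and 3 μM co-corrector controls.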

The target of experiment [2] is T1, ΔF508-CFTR. Kind of experiment: CFTR cell surface levels using HRP-tagged ΔF508-CFTR expressing CFBE cells, intrinsic corrector capacity. Type of experiment: cell-based. The gist of the method: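 Here the cells express ΔF508-CFTR with horseradish peroxidase inserted in extracellular loop 4, so only rescued channel at the surface gives luminescent signal. Compounds act on their own, 20 h at the reduced temperature of 33 °C; values are percent activity relative to DMSO and a 3 μM corrector.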

Setting [3] is: HRP-tagged ΔF508-CFTR expressing CFBE cells, in the presence of 3 μM co-corrector.
Where [4] appears, read: HRP-tagged ΔF508-CFTR expressing CFBE cells, intrinsic corrector capacity (no co-corrector), 33° C., 20 hours.
[5] abbreviates: HRP-tagged ΔF508-CFTR expressing CFBE cells, in the presence of 3 μM co-corrector, read-out: EC50.
Where [6] appears, read: HRP-tagged ΔF508-CFTR expressing CFBE cells, intrinsic corrector capacity (no co-corrector), 33° C., 20 hours, read-out: EC50.
The mark [7] stands for this setting: HRP-tagged ΔF508-CFTR CFBE41o- cells, compounds alone (intrinsic corrector capacity), 20 hours at 33° C., positive control 3 μM corrector.
Where [8] appears, read: HRP-tagged ΔF508-CFTR CFBE41o- cells, compounds alone (intrinsic corrector capacity), 20 hours at 33° C., read-out: EC50.

pEC50: −log10 of the molar value.

T1 sequence (P13569 with tags, fused parts or gaps DEL508-508): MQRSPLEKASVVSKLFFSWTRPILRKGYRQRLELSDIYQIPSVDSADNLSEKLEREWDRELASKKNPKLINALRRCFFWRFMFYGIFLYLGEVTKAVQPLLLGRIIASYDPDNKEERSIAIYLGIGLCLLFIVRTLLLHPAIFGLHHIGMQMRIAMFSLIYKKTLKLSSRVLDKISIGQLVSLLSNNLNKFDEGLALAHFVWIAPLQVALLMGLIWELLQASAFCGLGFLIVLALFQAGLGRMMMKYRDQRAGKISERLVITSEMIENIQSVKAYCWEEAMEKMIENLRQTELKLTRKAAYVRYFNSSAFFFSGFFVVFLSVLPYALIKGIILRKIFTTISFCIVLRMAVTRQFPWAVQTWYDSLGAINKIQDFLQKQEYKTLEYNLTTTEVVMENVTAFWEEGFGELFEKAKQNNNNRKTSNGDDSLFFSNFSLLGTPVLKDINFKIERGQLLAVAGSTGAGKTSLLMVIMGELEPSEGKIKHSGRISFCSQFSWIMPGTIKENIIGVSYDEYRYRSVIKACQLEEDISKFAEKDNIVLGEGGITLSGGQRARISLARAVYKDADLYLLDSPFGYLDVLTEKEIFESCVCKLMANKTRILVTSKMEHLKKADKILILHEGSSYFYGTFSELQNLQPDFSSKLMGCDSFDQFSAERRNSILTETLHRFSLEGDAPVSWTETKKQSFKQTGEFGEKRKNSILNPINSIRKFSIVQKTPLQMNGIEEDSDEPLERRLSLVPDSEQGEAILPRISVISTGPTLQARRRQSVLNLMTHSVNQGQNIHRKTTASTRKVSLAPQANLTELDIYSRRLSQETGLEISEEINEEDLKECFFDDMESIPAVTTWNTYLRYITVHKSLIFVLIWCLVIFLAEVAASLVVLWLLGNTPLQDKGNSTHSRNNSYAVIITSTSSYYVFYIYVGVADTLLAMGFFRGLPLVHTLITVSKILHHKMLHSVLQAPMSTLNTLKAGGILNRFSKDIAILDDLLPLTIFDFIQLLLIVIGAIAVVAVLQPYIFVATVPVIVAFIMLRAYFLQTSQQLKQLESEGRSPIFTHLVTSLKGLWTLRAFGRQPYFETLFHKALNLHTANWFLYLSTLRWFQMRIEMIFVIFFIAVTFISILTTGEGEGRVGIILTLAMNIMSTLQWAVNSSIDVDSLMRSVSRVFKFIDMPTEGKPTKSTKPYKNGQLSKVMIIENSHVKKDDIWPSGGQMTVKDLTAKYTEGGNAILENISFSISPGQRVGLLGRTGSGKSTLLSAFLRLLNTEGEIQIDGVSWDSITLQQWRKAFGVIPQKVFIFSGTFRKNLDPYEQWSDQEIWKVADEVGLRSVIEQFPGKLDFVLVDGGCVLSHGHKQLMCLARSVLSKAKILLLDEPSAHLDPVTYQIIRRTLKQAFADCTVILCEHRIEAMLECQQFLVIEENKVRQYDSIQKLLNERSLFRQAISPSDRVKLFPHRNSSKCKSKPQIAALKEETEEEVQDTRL

For `CC(C)(C)OC(=O)NC[C@@H]1CCN(c2cc(C(=O)O)nc3c2c(C2CCC2)nn3-c2ccccc2)C1` [compound 671, 4-[(3S)-3-{[(tert-butoxycarbonyl)amino]methyl}pyrrolidin-1-yl]-3-cyclobutyl-1-phenyl-1H-pyrazolo[3,4-b]pyridine-6-carboxylic acid], the values for the pEC50 in experiment [1] and in experiment [2] were 6.03 and 5.79, respectively. The “% Activation” value is given as 357.4% in experiment [1] (setting [3]) and 190.1% in experiment [2] (setting [4]).

Turning to `CN(C[C@@H]1CCN(c2cc(C(=O)O)nc3c2c(C2CCC2)nn3-c2ccccc2)C1)C(=O)OC(C)(C)C` [compound 674, 4-[(3R)-3-{[(tert-butoxycarbonyl)(methyl)amino]methyl}pyrrolidin-1-yl]-3-cyclobutyl-1-phenyl-1H-pyrazolo[3,4-b]pyridine-6-carboxylic acid], the results for the “% Activation” value in experiment [1] (setting [3]) and in experiment [2] (setting [4]) were 323.85% and 158.5%, respectively. Besides, the values for the pEC50 in experiment [1] (setting [5]) and in experiment [2] (setting [6]) were 6.42 and 6.28, respectively.

For the compound `O=C1CC[C@H](COc2cc(C(=O)O)nc3c2c(C2CCC2)nn3-c2ccccc2)N1` [compound 617, 3-cyclobutyl-4-{[(2R)-5-oxopyrrolidin-2-yl]methoxy}-1-phenyl-1H-pyrazolo[3,4-b]pyridine-6-carboxylic acid], the “% Activation” value in experiment [1] (setting [3]) was found to be 127.3%; in experiment [2] (setting [4]), 7.139%. The pEC50 in experiment [1] (setting [5]) and in experiment [2] (setting [6]) was under 5.00 throughout.

Consider `CC(C)c1nn(-c2ccc(F)cc2)c2nc(C(=O)O)cc(N3CCC(CCN4CCN(C)CC4)CC3)c12` [compound 785, 1-(4-fluorophenyl)-4-{4-[2-(4-methylpiperazin-1-yl)ethyl]piperidin-1-yl}-3-(propan-2-yl)-1H-pyrazolo[3,4-b]pyridine-6-carboxylic acid], for which the “% Activation” value amounted to 482.8% in experiment [1] (setting [3]) and 264.9% in experiment [2] (setting [4]). The pEC50 (as a rule, the EC50 on a negative log10 scale, so that one unit is a factor of ten) in experiment [1] (setting [5]) is 6.25; in experiment [2] (setting [6]) it was 6.21.

Turning to `CC(C)c1nn(C2CCCCC2)c2nc(C(=O)O)cc(C3=CCN(C(=O)OC(C)(C)C)CC3)c12` [compound 371, 4-[1-(tert-butoxycarbonyl)-1,2,3,6-tetrahydropyridin-4-yl]-1-cyclohexyl-3-(propan-2-yl)-1H-pyrazolo[3,4-b]pyridine-6-carboxylic acid], the results for the “% Activation” value in experiment [1] (setting [3]) and in experiment [2] (setting [7]) were 283.6% and 116.35%, respectively. The pEC50 is 5.96 in experiment [1] (setting [5]) and 5.88 in experiment [2] (setting [8]).

As for `O=C(O)c1cc(N2CCN3C[C@H](O)C[C@H]3C2)c2c(C3CCC3)nn(-c3ccccc3)c2n1` [compound 475, 3-cyclobutyl-4-[(7R,8aS)-7-hydroxyhexahydropyrrolo[1,2-a]pyrazin-2(1H)-yl]-1-phenyl-1H-pyrazolo[3,4-b]pyridine-6-carboxylic acid], the entries for the “% Activation” value in experiment [1] (setting [3]) and in experiment [2] (setting [4]) were 163.35% and 35.755%, respectively. Moreover, the pEC50 in experiment [1] (setting [5]) was 5.57; in experiment [2] (setting [6]), 5.18.

`CC(C1CCN(c2cc(C(=O)O)nc3c2c(C2CCC2)nn3-c2ccc(F)cc2)CC1)N1CCOCC1` (centres unmarked) [compound 805, 3-cyclobutyl-1-(4-fluorophenyl)-4-{4-[1-(morpholin-4-yl)ethyl]piperidin-1-yl}-1H-pyrazolo[3,4-b]pyridine-6-carboxylic acid]: the “% Activation” value in experiment [1] (setting [3]) is on record as 671%; in experiment [2] (setting [4]) it was 364%. In addition, the pEC50 is 7.32 in experiment [1] (setting [5]) and 7.14 in experiment [2] (setting [6]).

Regarding `COCC1CCN(c2cc(C(=O)O)nc3c2c(C2CCC2)nn3-c2ccccc2)CC1` [compound 405, 3-cyclobutyl-4-[4-(methoxymethyl)piperidin-1-yl]-1-phenyl-1H-pyrazolo[3,4-b]pyridine-6-carboxylic acid], the “% Activation” value in experiment [1] (setting [3]) came out at 512.4%; in experiment [2] (setting [4]) it was 298.75%. Further, the pEC50 in experiment [1] (setting [5]) was 6.65; in experiment [2] (setting [6]) it was 6.46.

As to `O=C(O)c1cc(N2CC3(CCCC3)C2)c2c(C3CCC3)nn(-c3ccccc3)c2n1` [compound 404, 4-(2-azaspiro[3.4]octan-2-yl)-3-cyclobutyl-1-phenyl-1H-pyrazolo[3,4-b]pyridine-6-carboxylic acid], the “% Activation” value in experiment [1] (setting [3]) is 275.95%; in experiment [2] (setting [4]), 104.91%. In addition, the pEC50 was 6.07 in experiment [1] (setting [5]) and 6.04 in experiment [2] (setting [6]).

Regarding `COCC1CN(CC2CCN(c3cc(C(=O)O)nc4c3c(C3CCC3)nn4-c3ccccc3)CC2)C1` [compound 831, 3-cyclobutyl-4-(4-{[3-(methoxymethyl)azetidin-1-yl]methyl}piperidin-1-yl)-1-phenyl-1H-pyrazolo[3,4-b]pyridine-6-carboxylic acid], the “% Activation” value in experiment [1] (setting [3]) was determined as 402.5%; in experiment [2] (setting [4]), 231.3%. Also, the values for the pEC50 in experiment [1] (setting [5]) and in experiment [2] (setting [6]) were 6.39 and 5.84, respectively.

In the case of `O=C(O)c1cc(N2CC[C@@H](F)C2)c2c(C3CCC3)nn(-c3ccccc3)c2n1` [compound 541, 3-cyclobutyl-4-[(3R)-3-fluoropyrrolidin-1-yl]-1-phenyl-1H-pyrazolo[3,4-b]pyridine-6-carboxylic acid], the “% Activation” value in experiment [1] (setting [3]) came out at 287.85%; in experiment [2] (setting [4]), 120.7%. Moreover, the pEC50 is 6.10 in experiment [1] (setting [5]) and 6.01 in experiment [2] (setting [6]).

Consider `CCOCCN1CCN(c2cc(C(=O)O)nc3c2c(C2CCC2)nn3-c2ccccc2)CC1` [compound 566, 3-cyclobutyl-4-[4-(2-ethoxyethyl)piperazin-1-yl]-1-phenyl-1H-pyrazolo[3,4-b]pyridine-6-carboxylic acid], for which the “% Activation” value in experiment [1] (setting [3]) came out at 365.3%; in experiment [2] (setting [4]), 150.5%. Moreover, the results for the pEC50 in experiment [1] (setting [5]) and in experiment [2] (setting [6]) were 6.39 and 6.41, respectively.

`Cc1nn(-c2ccccc2)c2nc(C(=O)O)cc(N3CCCOCC3)c12` [compound 315, 3-methyl-4-(1,4-oxazepan-4-yl)-1-phenyl-1H-pyrazolo[3,4-b]pyridine-6-carboxylic acid]: the “% Activation” value in experiment [1] (setting [3]) is listed as 150.3%; in experiment [2] (setting [7]), 24.61%. The values for the pEC50 in experiment [1] (setting [5]) and in experiment [2] (setting [8]) were 5.38 and 5.46, respectively.

Regarding `CN(C)[C@H]1C[C@@H](Oc2cc(C(=O)O)nc3c2c(C2CCC2)nn3-c2ccccc2)C1` [compound 492, 3-cyclobutyl-4-{[cis-3-(dimethylamino)cyclobutyl]oxy}-1-phenyl-1H-pyrazolo[3,4-b]pyridine-6-carboxylic acid], the entries for the “% Activation” value in experiment [1] (setting [3]) and in experiment [2] (setting [4]) were 239.55% and 84.2%, respectively. For the same compound, the negative-log EC50 (pEC50) was 5.60 in experiment [1] (setting [5]) and 5.63 in experiment [2] (setting [6]).

Consider `Cc1nn(-c2ccccc2)c2nc(C(=O)O)cc(OCC3CCC(F)(F)C3)c12` (centres unmarked) [compound 382, 4-[(3,3-difluorocyclopentyl)methoxy]-3-methyl-1-phenyl-1H-pyrazolo[3,4-b]pyridine-6-carboxylic acid], for which the figures for the “% Activation” value in experiment [1] (setting [3]) and in experiment [2] (setting [7]) were 268.1% and 80.645%, respectively. Further, the figures for the pEC50 in experiment [1] (setting [5]) and in experiment [2] (setting [8]) were 5.85 and 5.78, respectively.

For `CC(C)c1nn(C2CCCCC2)c2nc(C(=O)O)cc(-c3ccc(N4CCC(F)(F)C4)nc3)c12` [compound 181, 1-cyclohexyl-4-[6-(3,3-difluoropyrrolidin-1-yl)pyridin-3-yl]-3-(propan-2-yl)-1H-pyrazolo[3,4-b]pyridine-6-carboxylic acid], the “% Activation” value in experiment [1] (setting [3]) amounted to 397.95%; in experiment [2] (setting [7]) it was 149.2%. The pEC50 was 5.98 in experiment [1] (setting [5]) and 5.91 in experiment [2] (setting [8]).

Turning to `CC(C)(C)OC(=O)N1CCCC1c1nn(-c2ccccc2)c2nc(C(=O)O)cc(-c3ccc(N4CCOCC4)cc3)c12` (centres unmarked) [compound 76], the “% Activation” value in experiment [1] (setting [3]) came to 244.2%; in experiment [2] (setting [7]) it was 117.9%. In addition, the pEC50 in experiment [1] (setting [5]) was 6.37; in experiment [2] (setting [8]), 6.08.

On to `COCCN1CCN(C2CCN(c3cc(C(=O)O)nc4c3c(C3CCC3)nn4-c3ccc(F)cc3)CC2)CC1` [compound 896, 3-cyclobutyl-1-(4-fluorophenyl)-4-{4-[4-(2-methoxyethyl)piperazin-1-yl]piperidin-1-yl}-1H-pyrazolo[3,4-b]pyridine-6-carboxylic acid], for which the entries for the “% Activation” value in experiment [1] (setting [3]) and in experiment [2] (setting [4]) were 513.5% and 358.8%, respectively. The results for the pEC50 in experiment [1] (setting [5]) and in experiment [2] (setting [6]) were 6.16 and 5.79, respectively.

On to `CN1CCN(c2ccc(-c3cc(C(=O)O)nc4c3c(C3CCC3)nn4C3CCCCC3)cn2)CC1` [compound 877, 3-cyclobutyl-1-cyclohexyl-4-[6-(4-methylpiperazin-1-yl)pyridin-3-yl]-1H-pyrazolo[3,4-b]pyridine-6-carboxylic acid], for which the “% Activation” value in experiment [1] (setting [3]) is recorded as 374.57%; in experiment [2] (setting [4]), 162.65%. The pEC50 in experiment [1] (setting [5]) was 6.22; in experiment [2] (setting [6]) it was 6.46.

`CC(C)c1nn(C2CCCCC2)c2nc(C(=O)O)cc(-c3cccn3C)c12` [compound 362, 1-cyclohexyl-4-(1-methyl-1H-pyrrol-2-yl)-3-(propan-2-yl)-1H-pyrazolo[3,4-b]pyridine-6-carboxylic acid]: the entries for the “% Activation” value in experiment [1] (setting [3]) and in experiment [2] (setting [7]) were 170.85% and 44.405%, respectively. The pEC50 is 5.74 in experiment [1] (setting [5]) and 5.69 in experiment [2] (setting [8]).
